Measured values published in patent US20100160369A1, “S1P1 Agonists and Methods of Making And Using” (EXELIXIS, INC., priority 2008, published 2010).

Assays:
S1P1 [1] = molecular target: T1, S1P1 (Homo sapiens, UniProt P21453); assay: CNG cAMP Assay (Assay 1); assay type: cell-based; parameters: host or cells: HEK293 cells expressing the CNG channel; conditions: read-out: Assay 1 EC50
Procedure, shortened: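 HEK293 cells expressing CNG channel and S1P1, membrane-potential dye loaded; compounds (top 10 μM, 10-point 3-fold, 1.8% DMSO) added with 25 μM Ro 20-1724, 500 nM NECA and 10 nM S1P for 90 min. T90/T0 fluorescence (Ex 350/Em 590 nm) normalised to NECA-alone vs DMSO; EC50 fitted.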
Target sequence in this assay (P21453 whole entry): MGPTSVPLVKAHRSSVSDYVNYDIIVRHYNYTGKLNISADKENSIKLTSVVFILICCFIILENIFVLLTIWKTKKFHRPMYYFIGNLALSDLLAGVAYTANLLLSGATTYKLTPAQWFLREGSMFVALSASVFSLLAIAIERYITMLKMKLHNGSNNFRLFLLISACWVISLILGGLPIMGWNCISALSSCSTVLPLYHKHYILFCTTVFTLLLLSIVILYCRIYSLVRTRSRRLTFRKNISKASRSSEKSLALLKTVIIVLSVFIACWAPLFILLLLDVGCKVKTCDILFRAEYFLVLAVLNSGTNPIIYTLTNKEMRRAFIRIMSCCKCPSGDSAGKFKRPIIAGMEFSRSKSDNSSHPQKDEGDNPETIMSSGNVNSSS

S1P1 [2] = molecular target: T1, S1P1; assay: Tango β-arrestin Recruitment Assay in HEK293 cells (Assay 2a); assay type: cell-based; parameters: linker with TEV protease (N1a) cleavage site (C); host or cells: HEK293, transiently transfected; conditions: Tango β-arrestin Recruitment Assay, read-out: Assay 2a EC50
Procedure, shortened: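 HEK293 cells transiently expressing S1P1 (TEV-cleavable tTA fusion) with β-arrestin2–TEV; compounds up to 10 μM, 10-point 3-fold, 1% DMSO, 30 min then 16–18 h at 37 °C. Luciferase luminescence normalised to 5 μM S1P as 100% and DMSO as background; EC50 from percent-activity curves.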
Target sequence in this assay (P21453 whole entry): as above
Target sequence in this assay (P32121 whole entry partner): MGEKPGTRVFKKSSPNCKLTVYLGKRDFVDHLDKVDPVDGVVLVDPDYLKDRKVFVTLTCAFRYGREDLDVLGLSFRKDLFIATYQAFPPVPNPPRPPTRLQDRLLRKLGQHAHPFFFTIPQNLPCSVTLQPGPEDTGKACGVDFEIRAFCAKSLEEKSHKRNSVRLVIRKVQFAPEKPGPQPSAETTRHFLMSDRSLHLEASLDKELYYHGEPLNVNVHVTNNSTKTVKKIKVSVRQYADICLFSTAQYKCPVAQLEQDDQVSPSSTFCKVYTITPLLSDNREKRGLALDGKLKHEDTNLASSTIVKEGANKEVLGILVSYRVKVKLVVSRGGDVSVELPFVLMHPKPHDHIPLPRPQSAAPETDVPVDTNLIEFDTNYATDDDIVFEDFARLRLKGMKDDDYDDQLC

hS1P1R (hEdg1) = molecular target: T2, hS1P1R (hEdg1) (Homo sapiens, UniProt P21453); assay: hS1P1R GTPγS Binding Assay (Assay 3a); assay type: biochemical
T2 construct: purchased Lonza
Description: The hS1P1R GTPγS binding assay was carried out at room temperature in 96 well non-binding surface assay plates. The reaction in each well contained 4 μg hS1P1R (hEdg1) membrane protein (Lonza), 30 μM GDP, 0.1 nM [^35S]GTPγS, 0.25% fatty acid free BSA, and serially diluted hS1P1R agonist compound in 200 μL assay buffer (25 mM Tris-HCl PH 7.9, 100 mM NaCl, 3 mM MgCl2, and 0.2 mM EGTA). After one hour of incubation, 0.9 mg of WGA (Wheat Germ Agglutinin) SPA beads in 50 μL of assay buffer was added to each well. The SPA beads were spun down after an additional one hour incubation. The radioactivity of the bound GTPγS was counted by reading the assay plate using a MicroBeta.
Assay 1 is the CNG cAMP Assay as described in Biological Example 1. Assay 2a and 2b are the Tango™ β-arrestin Recruitment Assay in HEK293 and U2OS cells, respectively, as described in Biological Example 2. Assay 3a is the hS1P1R GTPγS Binding Assay as described in Biological Example 3. Assay 3b is the GTP-Eu Binding Assay as described in Biological Example 3. EC50's were measured unless otherwise noted. […] In the table, “nt” means the Compound was not tested and “no” means the compound was tested but had no measurable activity under the assay conditions employed.

S1P1 [3] = molecular target: T1, S1P1; assay: Tango β-arrestin Recruitment Assay in U2OS cells (Assay 2b); assay type: cell-based; parameters: linker with TEV protease (N1a) cleavage site (C); conditions: Tango β-arrestin Recruitment Assay, read-out: Assay 2b EC50
Procedure, shortened: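 U2OS cells expressing S1P1 and reporter, serum-starved 48 h, treated with compound (10-point 3-fold series, top 1 μM, 1% DMSO) overnight at 37 °C; β-lactamase substrate added 2 h at room temperature. F460/F530 ratio normalised to 1 μM S1P (100%) and DMSO; EC50 from concentration-response.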
Target sequence in this assay (P21453 whole entry): as the sequence (P21453 whole entry) above
Target sequence in this assay (P32121 whole entry partner): as the sequence (P32121 whole entry partner) above

T2 sequence (P21453 whole entry): as the sequence (P21453 whole entry) above

SMILES	EC50 (S1P1 [1]) [µM]	EC50 (S1P1 [2]) [µM]	EC50 (hS1P1R (hEdg1)) [µM]	EC50 (S1P1 [3]) [µM]
O=C(O)CCc1c(Cl)cc(-c2noc(-c3cn4cc(C(F)(F)F)cc(Cl)c4n3)n2)cc1Cl [Entry 21]	≤ 0.1	≤ 0.1	0.5 to 1	–
OC[C@H](O)COc1cc(Cl)c(-c2noc(-c3cn4cc(C(F)(F)F)cc(Br)c4n3)n2)cc1Cl [Entry 33]	–	≤ 0.1	≤ 0.1	≤ 0.1
C[C@H](O)COc1cc(Cl)c(-c2noc(-c3cn4cc(C(F)(F)F)cc(Cl)c4n3)n2)cc1Cl [Entry 38]	–	≤ 0.1	≤ 0.1	≤ 0.1
OC[C@H](O)COc1cc(Cl)c(-c2noc(-c3cn4cc(C(F)(F)F)cc(Cl)c4n3)n2)cc1Cl [Entry 39]	≤ 0.1	≤ 0.1	≤ 0.1	≤ 0.1
OCC(O)COc1cc(Cl)c(-c2nc(-c3cn4cc(C(F)(F)F)cc(Cl)c4n3)no2)cc1Cl (centres unmarked) [Entry 50]	–	≤ 0.1	≤ 0.1	≤ 0.1
O=C(O)CCc1cc(Cl)c(-c2noc(-c3cn4cc(C(F)(F)F)cc(Br)c4n3)n2)cc1Cl [Entry 68]	≤ 0.1	≤ 0.1	≤ 0.1	≤ 0.1
O=C(O)C1CC1c1cc(Cl)c(-c2noc(-c3cn4cc(C(F)(F)F)cc(Br)c4n3)n2)cc1F (centres unmarked) [Example 89, 2-(4-{5-[8-bromo-6-(trifluoromethyl)imidazo[1,2-a]pyridin-2-yl]-1,2,4-oxadiazol-3-yl}-5-chloro-2-fluorophenyl)cyclopropanecarboxylic acid]	≤ 0.1	≤ 0.1	0.5 to 1	–
OCCCOc1cc(Cl)c(-c2noc(-c3cn4cc(C(F)(F)F)cc(Cl)c4n3)n2)cc1Cl [Example 105, 3-[(2,5-dichloro-4-{5-[8-chloro-6-(trifluoromethyl)imidazo[1,2-a]pyridin-2-yl]-1,2,4-oxadiazol-3-yl}phenyl)oxy]propan-1-ol]	–	≤ 0.1	≤ 0.1	≤ 0.1
OC(CF)COc1cc(Cl)c(-c2noc(-c3cn4cc(C(F)(F)F)cc(Cl)c4n3)n2)cc1Cl (centres unmarked) [Example 118, 1-[(2,5-dichloro-4-{5-[8-chloro-6-(trifluoromethyl)imidazo[1,2-a]pyridin-2-yl]-1,2,4-oxadiazol-3-yl}phenyl)oxy]-3-fluoropropan-2-ol]	–	≤ 0.1	≤ 0.1	≤ 0.1
CC(C)(O)COc1cc(Cl)c(-c2noc(-c3cn4cc(C(F)(F)F)cc(Cl)c4n3)n2)cc1Cl [Example 166, 1-[(2,5-dichloro-4-{5-[8-chloro-6-(trifluoromethyl)imidazo[1,2-a]pyridin-2-yl]-1,2,4-oxadiazol-3-yl}phenyl)oxy]-2-methylpropan-2-ol]	–	≤ 0.1	0.1 to 0.5	≤ 0.1
OCCCc1cc(Cl)c(-c2noc(-c3cn4cc(C(F)(F)F)cc(Cl)c4n3)n2)cc1Cl [Example 167, 3-(2,5-dichloro-4-{5-[8-chloro-6-(trifluoromethyl)imidazo[1,2-a]pyridin-2-yl]-1,2,4-oxadiazol-3-yl}phenyl)propan-1-ol]	–	≤ 0.1	≤ 0.1	≤ 0.1
OCC(O)COc1ccc(-c2noc(-c3cn4cc(C(F)(F)F)cc(Cl)c4n3)n2)c(Cl)c1 (centres unmarked) [Example 194, 3-[(3-chloro-4-{5-[8-chloro-6-(trifluoromethyl)imidazo[1,2-a]pyridin-2-yl]-1,2,4-oxadiazol-3-yl}phenyl)oxy]propane-1,2-diol]	≤ 0.1	≤ 0.1	0.5 to 1	–
Cc1cc(CCC(=O)O)c(Cl)cc1-c1noc(-c2cn3cc(C(F)(F)F)cc(Br)c3n2)n1 [Example 196, 3-(4-{5-[8-bromo-6-(trifluoromethyl)imidazo[1,2-a]pyridin-2-yl]-1,2,4-oxadiazol-3-yl}-2-chloro-5-methylphenyl)propanoic acid]	≤ 0.1	≤ 0.1	≤ 0.1	≤ 0.1
OCC(O)COc1cc(Cl)c(-c2noc(-c3cn4cc(C(F)(F)F)cc(Cl)c4n3)n2)cc1F (centres unmarked) [Example 198, 3-[(5-chloro-4-{5-[8-chloro-6-(trifluoromethyl)imidazo[1,2-a]pyridin-2-yl]-1,2,4-oxadiazol-3-yl}-2-fluorophenyl)oxy]propane-1,2-diol]	≤ 0.1	≤ 0.1	≤ 0.1	–
OCC(O)COc1cc(Cl)c(-c2noc(-c3cn4cc(C(F)(F)F)cc(Br)c4n3)n2)cc1Cl (centres unmarked) [Example 212, 3-[(4-{5-[8-bromo-6-(trifluoromethyl)imidazo[1,2-a]pyridin-2-yl]-1,2,4-oxadiazol-3-yl}-2,5-dichlorophenyl)oxy]propane-1,2-diol]	–	≤ 0.1	≤ 0.1	≤ 0.1
O=C(O)CCc1cc(Cl)c(-c2nc(-c3cn4cc(I)cc(Cl)c4n3)no2)cc1F [Example 240, 3-{5-chloro-4-[3-(8-chloro-6-iodoimidazo[1,2-a]pyridin-2-yl)-1,2,4-oxadiazol-5-yl]-2-fluorophenyl}propanoic acid]	–	≤ 0.1	0.5 to 1	–
OC[C@H](O)COc1cc(Cl)c(-c2nnc(-c3cn4cc(C(F)(F)F)cc(Cl)c4n3)s2)cc1Cl [Example 252, (25)-3-[(2,5-dichloro-4-{5-[8-chloro-6-(trifluoromethyl)imidazo[1,2-a]pyridin-2-yl]-1,3,4-thiadiazol-2-yl}phenyl)oxy]propane-1,2-diol]	≤ 0.1	≤ 0.1	0.5 to 1	≤ 0.1
OCCOc1cc(Cl)c(-c2noc(-c3cn4cc(C(F)(F)F)cc(Br)c4n3)n2)cc1Cl [Example 277, 2-[(4-{5-[8-bromo-6-(trifluoromethyl)imidazo[1,2-a]pyridin-2-yl]-1,2,4-oxadiazol-3-yl}-2,5-dichlorophenyl)oxy]ethanol]	–	≤ 0.1	≤ 0.1	≤ 0.1
OCC(CO)COc1cc(Cl)c(-c2noc(-c3cn4cc(C(F)(F)F)cc(Cl)c4n3)n2)cc1Cl [Example 278, 2-{[(2,5-dichloro-4-{5-[8-chloro-6-(trifluoromethyl)imidazo[1,2-a]pyridin-2-yl]-1,2,4-oxadiazol-3-yl}phenyl)oxy]methyl}propane-1,3-diol]	–	≤ 0.1	≤ 0.1	≤ 0.1
CC(Cc1cc(Cl)c(-c2nnc(-c3cn4cc(C(F)(F)F)cc(Cl)c4n3)s2)cc1Cl)C(=O)O (centres unmarked) [Example 285, 3-(2,5-dichloro-4-{5-[8-chloro-6-(trifluoromethyl)imidazo[1,2-a]pyridin-2-yl]-1,3,4-thiadiazol-2-yl}phenyl)-2-methylpropanoic acid]	–	≤ 0.1	1 to 5	–
O=C(O)CCc1cc(Cl)c(-c2nnc(-c3cn4cc(C(F)(F)F)cc(Br)c4n3)s2)cc1Cl [Example 286, 3-(4-{5-[8-bromo-6-(trifluoromethyl)imidazo[1,2-a]pyridin-2-yl]-1,3,4-thiadiazol-2-yl}-2,5-dichlorophenyl)propanoic acid]	–	≤ 0.1	1 to 5	≤ 0.1
CC(C)(O)COc1cc(Cl)c(-c2noc(-c3cn4cc(C(F)(F)F)cc(Br)c4n3)n2)cc1Cl [Example 287, 1-[(4-{5-[8-bromo-6-(trifluoromethyl)imidazo[1,2-a]pyridin-2-yl]-1,2,4-oxadiazol-3-yl}-2,5-dichlorophenyl)oxy]-2-methylpropan-2-ol]	–	≤ 0.1	0.1 to 0.5	≤ 0.1
C[C@@H](O)COc1cc(Cl)c(-c2noc(-c3cn4cc(C(F)(F)F)cc(Cl)c4n3)n2)cc1Cl [Example 295, (2R)-1-[(2,5-dichloro-4-{5-[8-chloro-6-(trifluoromethyl)imidazo[1,2-a]pyridin-2-yl]-1,2,4-oxadiazol-3-yl}phenyl)oxy]propan-2-ol]	–	≤ 0.1	≤ 0.1	≤ 0.1
